According to patent US20240199582A1, “INHIBITORS OF POLY(ADP-RIBOSE) POLYMERASE” (RHIZEN PHARMACEUTICALS AG, priority 2021, published 2024):

Legend:
[1] = test system: BRCA mutant and non-BRCA mutant cancer cell lines; assay: Cell proliferation assay to determine GI50 in BRCA mutant and non-BRCA mutant cancer cell lines; format: cell-based; details: range over BRCA mutant and non-BRCA mutant cancer cell lines; treatment 72, 120 or 144 hours
Procedure: On Day “0” the test cells were plated in 100 μL/well in complete media in a 96-well plate in triplicates and plates were incubated at 37° C. and 5% CO2. On Day 1, 10 μL of MTT (5 mg/ml) were added to the column designated for Day “0”. It was mixed well and incubated at 37° C. and 5% CO2 for 3.5 h. Cells were pelleted down at 4000 rpm for 10 minutes. Media was aspirated out and 150 μL of DMSO were added to the cells and mixed by pipetting to dissolve the crystals. Plate was read at A560 nm and A640. DMSO dilutions of the inhibitors (Compound 1 or Compound 1D) were diluted to 3× of required concentration in growth medium. Cells in each well were treated with 50 μL of complete media containing inhibitor. DMSO concentration in the well was 0.1%. Plates were incubated at 37° C. and 5% CO2 as required for 144 hours. 15 μL of MTT (5 mg/mL) was added to the wells. Plates were incubated at 37° C. and 5% CO2 for 3.5 hours. After incubation, cells are pelleted down at 4000 rpm for 10 min. Media was aspirated and 150 μL of DMSO per well were added to dissolve the formazan crystals. Plate was read at A560 nm and A640. […]
Cancer cell lines were plated at desired density in their respective complete media and incubated overnight at 37° C. and 5% CO2. […] At the end of the treatment period, cell viability was measured and GI50 values were calculated.

[2] = Rat pharmacokinetics (oral and IV), plasma by LC-MS/MS; format: in vivo, rats (Wistar rat strains); details: for AUC(0-t): Compound 1 prepared by Method 2, Compound 1D prepared by Method 2, read-out: AUC0-24
Procedure: The oral bioavailability of Compound 1 and its salts were evaluated in rats. The protocol for the pharmacokinetic (PK) studies in rats is provided below.
Formulation 1: Polysorbate 80 (10% v/v)+Methyl Cellulose (MC) (0.5% w/v) • 1. 200 mg^#of the test compound was weighed and transferred into a mortar. • 2. 1.0 mL of polysorbate 80 (10% v/v of the final suspension) was added to the mortar and the test item was triturated to afford a smooth paste. • 3. 9.0 mL of 0.5% methyl cellulose (4000 cps) was added and triturated to afford a fine suspension. • 4. The final strength of the formulation was 20.0 mg/mL. #For salts of the test compound in order to achieve the equivalent dose level on a molar basis as the free base, a correction factor was used based on the salt and purity. Formulation 2: Propylene Glycol (40% v/v)+60% Methyl Cellulose (MC) (0.5% w/v) • 1. 1400 mg #of the test compound was weighed and transferred into a glass beaker. • 2. 28.0 mL of propylene glycol (1,2-popanediol) (40% v/v of the final volume) was added to the glass beaker and sonicated for 20 min to dissolve. (strength is 50 mg/mL) • 3. At the time of dosing, 20 mL of propylene glycol (50.0 mg/mL) and 30.0 mL of 0.5% methyl cellulose (4000 cps) were mixed with continuous stirring to afford a clear solution • 4. The final strength of the formulation was 20.0 mg/mL. • #For salts of the test compound in order to achieve the equivalent dose level on a molar basis as the free base, a correction factor was used based on the salt and purity.
(§1) Protocol: All animals (mice (BALB/c mice), rats (Wistar rat strains), and dogs (beagle, non-naïve)) were fasted overnight (12 hours) before dosing and continued till 4.0 hours after administration of test item. The blood samples (all collections each of 150 μL from each animal) were collected according to the sampling schedule from orbital sinus or jugular vein into the micro centrifuge tube containing dipotassium EDTA as an anticoagulant. Blood samples were centrifuged immediately with a speed of 4000 RPM for 10 min at 4° C. and separated plasma samples were frozen at below −80° C. and stored until analysis. The plasma concentrations of test item in all samples were analysed by LC-MS/MS method Pharmacokinetic parameters viz. Cmax, AUC0-t, AUC0-∞, Tmax, and t½, were estimated by using WinNonlin software.

[3] = Dog pharmacokinetics (IV and oral), plasma by LC-MS/MS; format: in vivo, dogs (beagle, non-naïve)
Procedure: as §1

[4] = Mice pharmacokinetics (IV and oral), plasma by LC-MS/MS; format: in vivo, mice (BALB/c mice)
Procedure: as §1

[5] = Wistar, plasma, oral, 100 mg/kg, Formulation 1: Polysorbate 80 (10% v/v) + MC (0.5% w/v), Compound 1 prepared by Method 2, Compound 1D prepared by Method 2
[6] = Wistar, plasma, oral, 100 mg/kg, Formulation 1: Polysorbate 80 (10% v/v) + MC (0.5% w/v)
[7] = Wistar, plasma, oral, 100 mg/kg, Formulation 1: Polysorbate 80 (10% v/v) + MC (0.5% w/v), Compound 1 prepared by Method 2, Compound 1D prepared by Method 2, read-out: Tmax
[8] = oral, 100 mg/kg, Formulation 1: Polysorbate 80 (10% v/v) + MC (0.5% w/v), Compound 1 prepared by Method 2, Compound 1D prepared by Method 2
[9] = oral, 100 mg/kg, Formulation 1: Polysorbate 80 (10% v/v) + MC (0.5% w/v), Compound 1 prepared by Method 2, Compound 1D prepared by Method 2, 100 mg/kg
[10] = oral, 100 mg/kg, Formulation 1: Polysorbate 80 (10% v/v) + MC (0.5% w/v), Compound 1C prepared by Method 1
[11] = oral, 100 mg/kg, Formulation 1: Polysorbate 80 (10% v/v) + MC (0.5% w/v), Compound 1C prepared by Method 2
[12] = oral, 100 mg/kg, Formulation 2: PG (40% v/v) + 60% MC (0.5% w/v), Compound 1D prepared by Method 2
[13] = oral, 100 mg/kg, Formulation 2: PG (40% v/v) + 60% MC (0.5% w/v), Compound 1D prepared by Method 3

Q: With `C[C@]1(O)C(=O)N(c2cncc(Cc3n[nH]c(=O)c4ccccc34)c2)c2ccccc21` [Compound 1, (R)-(+)-4-((5-(3-Hydroxy-3-methyl-2-oxoindolin-1-yl)pyridin-3-yl)methyl)phthalazin-1(2H)-one] as the compound, how does the GI50 [1] read?
A: 0.043 to 19.8 µM

Q: What about the melting point of the same compound?
A: 110 to 113 °C

Q: And the Cmax [2, 5]?
A: 2.56 µM

Q: And the AUC(0-t) [2, 6]?
A: 7.81 µM·h

Q: What about the Tmax [2, 7] of the same compound?
A: 30 min

Q: With `C[C@]1(O)C(=O)N(c2cncc(Cc3n[nH]c(=O)c4ccccc34)c2)c2ccccc21.Cl` [Compound 1A, (R)-(+)-4-((5-(3-Hydroxy-3-methyl-2-oxoindolin-1-yl)pyridin-3-yl)methyl)phthalazin-1(2H)-one, hydrochloride] as the compound, how does the melting point read?
A: 226 to 228 °C

Q: And the Cmax [2, 5]?
A: 4.38 µM

Q: And the AUC(0-t) [2, 6]?
A: 23.3 µM·h

Q: What about the Tmax [2, 7] of the same compound?
A: 15 min

Q: Which results are given for `C[C@]1(O)C(=O)N(c2cncc(Cc3n[nH]c(=O)c4ccccc34)c2)c2ccccc21.O=S(=O)(O)c1ccccc1` [Compound 1B, (R)-(+)-4-((5-(3-hydroxy-3-methyl-2-oxoindolin-1-yl)pyridin-3-yl)methyl)phthalazin-1(2H)-one, benzene sulfonate]?
A: AUC0-24 [2, 8]: 32.43 µM·h; Tmax [2, 8]: 30 min; Cmax [2, 9]: 17.2 µM

Q: What does the source list for `C[C@]1(O)C(=O)N(c2cncc(Cc3n[nH]c(=O)c4ccccc34)c2)c2ccccc21.Cc1ccc(S(=O)(=O)O)cc1` [Compound 1C, (R)-(+)-4-((5-(3-hydroxy-3-methyl-2-oxoindolin-1-yl)pyridin-3-yl)methyl)phthalazin-1(2H)-one, 4-methylbenzene sulfonate]?
A: AUC0-24 [2, 10]: 39.98 µM·h; Cmax [2, 10]: 11.9 µM; Tmax [2, 10]: 30 min; AUC0-24 [2, 11]: 23.09 µM·h; Cmax [2, 11]: 10.5 µM; Tmax [2, 11]: 15 min

Q: With `CS(=O)(=O)O.C[C@]1(O)C(=O)N(c2cncc(Cc3n[nH]c(=O)c4ccccc34)c2)c2ccccc21` [Compound 1D, (R)-(+)-4-((5-(3-Hydroxy-3-methyl-2-oxoindolin-1-yl)pyridin-3-yl)methyl)phthalazin-1(2H)-one, methane sulfonate] as the compound, how does the AUC0-24 ([3]; IV, 1 mg/kg) read?
A: 2.73 µM·h

Q: What about the C0 ([3]; IV, 1 mg/kg) of the same compound?
A: 4.11 µM

Q: And the Cmax ([3]; IV, 1 mg/kg)?
A: 3.47 µM

Q: And the AUC0-24 ([3]; oral, 20 mg/kg)?
A: 57.05 µM·h

Q: What about the Cmax ([3]; oral, 20 mg/kg) of the same compound?
A: 22.9 µM

Q: What about the Tmax ([3]; oral, 20 mg/kg) of the same compound?
A: 30 min

Q: What about the AUC0-24 ([4]; IV, 1 mg/kg) of the same compound?
A: 1.12 µM·h

Q: What about the C0 ([4]; IV, 1 mg/kg) of the same compound?
A: 3.12 µM

Q: What about the Cmax ([4]; IV, 1 mg/kg) of the same compound?
A: 2.87 µM

Q: And the AUC0-24 ([4]; oral, 10 mg/kg)?
A: 5.64 µM·h

Q: What about the Cmax ([4]; oral, 10 mg/kg) of the same compound?
A: 7.62 µM

Q: What about the Tmax ([4]; oral, 10 mg/kg) of the same compound?
A: 15 min

Q: What about the AUC0-24 ([2]; IV, 1 mg/kg) of the same compound?
A: 1.18 µM·h

Q: What about the C0 ([2]; IV, 1 mg/kg) of the same compound?
A: 5.25 µM

Q: And the Cmax ([2]; IV, 1 mg/kg)?
A: 4.47 µM

Q: And the AUC0-24 ([2]; oral, 10 mg/kg)?
A: 8.96 µM·h

Q: And the Cmax ([2]; oral, 10 mg/kg)?
A: 8.43 µM

Q: And the Tmax ([2]; oral, 10 mg/kg)?
A: 22.8 min

Q: And the AUC0-24 [2, 8]?
A: 34.71 µM·h

Q: And the Tmax [2, 8]?
A: 15 min

Q: And the Cmax [2, 9]?
A: 13 µM

Q: And the AUC0-24 [2, 12]?
A: 135.36 µM·h

Q: And the Cmax [2, 12]?
A: 55.6 µM

Q: And the Tmax [2, 12]?
A: 30 min

Q: What about the AUC0-24 [2, 13] of the same compound?
A: 139.36 µM·h

Q: What about the Cmax [2, 13] of the same compound?
A: 53.7 µM

Q: What about the Tmax [2, 13] of the same compound?
A: 30 min
